Laboratory results from patent US6995183B2, “Adamantylglycine-based inhibitors of dipeptidyl peptidase IV and methods” (Bristol Myers Squibb Company, priority 2003, dated 2006).
Read-outs that look alike come from different tables or passages of the source.

Key:
[1] = molecular target: T1, Porcine Dipeptidyl Peptidase IV (Sus scrofa, UniProt P22411); experiment: Assay of Porcine Dipeptidyl Peptidase IV, steady-state inhibition constants (Ki); type: biochemical; conditions: DPP-IV
T1 construct: left at 37° C. for 18 hours to facilitate cleavage of DPP-4 from cell membranes; from tissue; host or cells: pig kidney cortex
Procedure: DPP-4 inhibitor activity of the compounds of the invention may be determined by use of an in vitro assay system which measures the potentiation of inhibition of DPP-4.
Porcine enzyme was purified as previously described in reference (2) below, with several modifications. Kidneys from 15-20 animals were obtained, and the cortex was dissected away and frozen at −80° C. Frozen tissue (2000-2500 g) was homogenized in 12 L of 0.25 M sucrose in a Waring blender. The homogenate then was left at 37° C. for 18 hours to facilitate cleavage of DPP-4 from cell membranes. After the cleavage step, the homogenate was clarified by centrifugation at 7000×g for 20 min at 4° C., and the supernatant was collected. […]
After dialysis against 20 mM Na2HPO4, pH 7.4, the preparation was clarified by centrifugation at 10,000×g. […] Purity of column fractions was analyzed by reducing SDS-PAGE, and the purest fractions were pooled and concentrated. […]
Enzyme was assayed under steady-state conditions as previously described in reference (2) below with gly-pro-p-nitroanilide as substrate, with the following modifications. […] A standard curve for p-nitroaniline absorbance was obtained at the beginning of each experiment, and enzyme catalyzed p-nitroaniline production was quantitated from the standard curve. […]

plasma DPP-IV = molecular target: T2, plasma DPP-IV (Rattus norvegicus, UniProt P14740); experiment: Rat ex vivo plasma DPP-IV inhibition assay; type: in vivo, Zucker fa/fa rat; conditions: oral; for inhibition at 3 µmol/kg: rat, 3 μmol/kg
T2 construct: from tissue; host or cells: plasma of male Zucker fa/fa rats (Harlan)

Zucker^fa/fa rat = experiment: Oral glucose tolerance test (OGTT) in Zucker fa/fa rats; type: in vivo; conditions: for glucose control after oral glucose challenge (in words): rodent model of impaired glucose homeostasis
Excerpt: In vivo evaluation of DPP-IV inhibitors has supported the connection between DPP-IV inhibition, increases in plasma insulin levels, and an improvement in glucose tolerance.^1 Several compounds in the present series are potent inhibitors of DPP-IV in vitro. As such, these inhibitors were selected to determine the effects of DPP-IV inhibition ex vivo and on glucose tolerance in Zucker^fa/fa rat. The Zucker^fa/fa rat is a frequently used model in type II diabetes and obesity research. […] Plasma glucose levels were then monitored over a 2 h period. Columns 3 and 4 show the ex vivo plasma DPP-IV inhibition activity. […] In contrast, the adamantyl inhibitors show good inhibitory activity in the ex vivo assay, even at extended time points.
Male Zucker^fa/fa rats (Harlan) weighing between 400 and 450 g were housed in a room that was maintained on a 12 h light /dark cycle and were allowed free access to normal rodent chow and tap water. The day before the experiment, the rats were weighed and divided into control and treated groups of six. Rats were fasted 17 h prior to the start of the study. […] Two blood samples were collected at −30 and 0 min by tail bleed. Glucose (2 g/kg) was administered orally at 0 min. Additional blood samples were collected at 15, 30, 60, 90 and 120 min. Blood samples were collected into EDTA containing tubes from Starstedt. Plasma glucose was determined by Cobas Mira (Roche Diagnostics) by the glucose oxidation method.

[2] = Solution stability of 2-cyano-pyrrolidines; type: physicochemical
Procedure: In experiments at pH=7.2 and 39° C., the greater degree of β-branching the greater degree of stability associated with the compound. […] These are depected in the table below.

T2 sequence (P14740 37-767 limits assumed): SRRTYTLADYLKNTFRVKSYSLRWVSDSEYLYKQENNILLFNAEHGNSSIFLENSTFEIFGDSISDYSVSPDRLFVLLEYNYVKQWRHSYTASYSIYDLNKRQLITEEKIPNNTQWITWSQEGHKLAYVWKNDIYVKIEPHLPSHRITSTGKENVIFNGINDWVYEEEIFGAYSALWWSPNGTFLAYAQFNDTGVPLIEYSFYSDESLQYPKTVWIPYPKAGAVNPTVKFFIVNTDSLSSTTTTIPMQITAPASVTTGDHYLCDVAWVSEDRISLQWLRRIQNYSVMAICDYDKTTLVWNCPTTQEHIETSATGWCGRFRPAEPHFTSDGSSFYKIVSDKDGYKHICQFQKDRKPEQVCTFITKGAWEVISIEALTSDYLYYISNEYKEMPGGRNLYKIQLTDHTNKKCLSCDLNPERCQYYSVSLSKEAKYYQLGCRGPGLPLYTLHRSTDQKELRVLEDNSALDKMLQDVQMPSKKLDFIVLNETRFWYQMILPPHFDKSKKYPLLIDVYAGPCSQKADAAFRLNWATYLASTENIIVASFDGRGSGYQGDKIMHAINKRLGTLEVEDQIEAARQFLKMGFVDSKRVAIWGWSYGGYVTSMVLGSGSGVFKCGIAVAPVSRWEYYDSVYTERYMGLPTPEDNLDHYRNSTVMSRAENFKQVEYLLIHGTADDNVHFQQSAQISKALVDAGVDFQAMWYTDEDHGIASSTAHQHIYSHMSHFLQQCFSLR
T1 sequence (P22411 38-766 limits assumed): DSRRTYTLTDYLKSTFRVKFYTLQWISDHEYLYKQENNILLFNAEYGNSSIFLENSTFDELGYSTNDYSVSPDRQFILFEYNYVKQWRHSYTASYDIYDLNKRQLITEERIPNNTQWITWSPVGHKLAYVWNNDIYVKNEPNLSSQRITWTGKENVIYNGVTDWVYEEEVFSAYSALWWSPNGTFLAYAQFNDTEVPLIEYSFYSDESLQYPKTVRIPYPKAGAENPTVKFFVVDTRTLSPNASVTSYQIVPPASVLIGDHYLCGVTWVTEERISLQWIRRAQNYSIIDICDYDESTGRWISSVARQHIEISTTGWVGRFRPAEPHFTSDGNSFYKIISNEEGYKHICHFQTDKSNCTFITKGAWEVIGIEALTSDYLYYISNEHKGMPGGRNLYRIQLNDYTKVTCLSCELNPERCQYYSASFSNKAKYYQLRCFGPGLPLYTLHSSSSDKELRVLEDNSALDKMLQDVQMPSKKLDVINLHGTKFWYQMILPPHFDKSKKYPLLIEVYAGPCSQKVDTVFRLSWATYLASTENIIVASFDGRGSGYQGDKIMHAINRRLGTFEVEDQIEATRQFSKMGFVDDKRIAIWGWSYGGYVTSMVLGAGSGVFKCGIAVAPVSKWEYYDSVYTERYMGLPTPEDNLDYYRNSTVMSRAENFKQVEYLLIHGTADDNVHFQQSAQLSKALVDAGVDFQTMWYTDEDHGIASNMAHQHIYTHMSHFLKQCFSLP

N#CC1CC2CC2N1C(=O)[C@@H](N)C12CC3CC(O)(CC(O)(C3)C1)C2.O=C(O)C(F)(F)F (stereo in doubt) [Example 8, (S)-3,5-Dihydroxyadamantylglycine-L-cis-4,5-methanoprolinenitrile TFA salt]
Ki [1]: 17 nM
% Inhibition in Rat Ex Vivo assay 3 μmol/kg 0.5 h post dose (plasma DPP-IV; 0.5 h post dose): 80%
% Inhibition in Rat Ex Vivo assay 3 μmol/kg 4 h post dose (plasma DPP-IV; 4 h post dose): 67%

CC12CC3(C)CC(O)(C1)CC([C@H](N)C(=O)N1CCCC1)(C2)C3 [Example 5, (3-hydroxy-5,7-dimethyladamant-1-yl)-glycine pyrrolidine amide]
Ki [1]: 133 nM
inhibition at 3 µmol/kg (plasma DPP-IV; 0.5 h post dose, read-out: % Inhibition in Rat Ex Vivo assay 3 μmol/kg 0.5 h post dose): 70%
inhibition at 3 µmol/kg (plasma DPP-IV; 4 h post dose, read-out: % Inhibition in Rat Ex Vivo assay 3 μmol/kg 4 h post dose): 66%
Glucose Lowering at 4 h; % AUC's, compared to control (Zucker^fa/fa rat; oral, 3 μmol/kg, oral glucose 2 g/kg): −39%

N#C[C@@H]1CCCC1C(=O)C(N)C12CC3CC(CC(O)(C3)C1)C2 (stereo partly shown) [Example 9]
glucose control after oral glucose challenge (in words) (Zucker^fa/fa rat): good glucose control

CC[C@H](C)[C@H](N)C(=O)N1CCC[C@H]1C#N [Ref. Std 1, iso-Leucine-cyanopyrrolide]
Glucose Lowering at 4 h; % AUC's, compared to control (Zucker^fa/fa rat; dosed at 16 μm/kg): −11%
Glucose Lowering at 4 h; % AUC's, compared to control (Zucker^fa/fa rat; dosed at 200 μm/kg): −19%
glucose control after oral glucose challenge (in words) (Zucker^fa/fa rat): only a slight change in glucose control
half-life ([2]; pH 7.2): 5 h

tert-Leucine-cyanopyrrolide
times more stable than Ref. Std. 1 ([2]; pH=7.2, 39° C., ratio of t1/2): ~6
